According to patent publication US8153693B2, “Compounds for the selective treatment of the intestinal immuno-inflammatory component of the celiac disease” (Giuliani International Limited, priority 2007, dated 2012):
Entries after “also recorded” stand apart in the source; their conditions may differ.

Columns and labels:
[1] = test system: HT-29 STD cells; experiment: Cytotoxic effect on epithelial cells seen in the HT-29 experiments; assay type: cell-based; conditions: 30 mM
Experimental: After 24 h of culture, HT-29 STD cells were treated during 24 h with the compounds A, B, C, D and F, at 30 mM. […] The pH of the drug solutions was adjusted to 7.4 with NaOH. Cells were fixed in PFA 4%, permeabilized in PBS containing 0.1% Triton X-100™ at 4° C. and then incubated with goat normal serum and blocking buffer (1% BSA in PBS) to minimize non-specific adsorption of the antibody.
(§1) After 24 h of culture, HT-29 STD cells were treated during 24 h with the compounds A, B, C, D, F, at a concentration of 30 mM. […] The pH of the drug solutions was adjusted to 7.4 with NaOH. Cells undergoing apoptosis were identified by enzymatic labelling of DNA strands using a terminal transferase dUTP nick end labelling assay (TUNEL assay, Roche Diagnostics™, Meylan, France). Counts of at least 500 cells/sample were systematically performed blindly in one experiment. The results were expressed as the mean±SEM of the number of stained cells.

[2] = test system: PPARγ; experiment: PPARγ expression by western blot in HT-29 cells; assay type: cell-based; conditions: for induction of PPARγ expression at the protein levels (in words): HT-29 cell line; for mean induction of PPARγ protein levels quantified by western blot: cells treated during 24 hours
Experimental: (§2) The colon cell line HT-29 STD (ATCC HTB-38) was routinely grown in DMEM supplemented with 10% heat-FCS, and antibiotics. Cells were grown in monolayers, incubated at 37° C. in 5% CO2 and 95% relative humidity.
The total proteins were obtained by cell homogenization in an extraction buffer consisting of PBS with 2% Triton™, Phenyl Methyl Sulphonyl Fluoride (PMSF) 100 mM and a classical protease inhibitor cocktail. The total proteins were then separated by polyacrylamide gel electrophoresis and electroblotted. Polyvinylidendifluoride (PVDF) membranes were incubated overnight with rabbit polyclonal primary antibody directed against PPARγ (dilution 1/500, TEBU, Le Perray en Yveline, France). β-actin was detected using a rabbit monoclonal primary antibody diluted at 1/10,000 (Sigma). Immunodetection with a secondary peroxidase-conjugated antibody (1/1000, Dako™, Trappes, France) and chemiluminescence was performed according to the manufacturer's protocol (ECL™, Amersham Pharmacia Biotech™, Orsay, France). Optical density values of PPARγ were given for each condition in proportion to the quantity of the internal control β-actin in the same sample.

[3] = biological target: T1, PPARγ (Homo sapiens, UniProt P37231); experiment: PPARγ activation, PPRE luciferase reporter in transfected HT-29 STD cells (Example 5); assay type: cell-based; conditions: 30 mM; for increase of the reporter gene activity: 24 hours, versus non-stimulated cells
T1 construct: HT-29 STD cells were transiently transfected using the Effectene™ transfection reagent; endogenous in cells; host or cells: HT-29 STD (ATCC HTB-38)
T1 sequence (P37231 1-505): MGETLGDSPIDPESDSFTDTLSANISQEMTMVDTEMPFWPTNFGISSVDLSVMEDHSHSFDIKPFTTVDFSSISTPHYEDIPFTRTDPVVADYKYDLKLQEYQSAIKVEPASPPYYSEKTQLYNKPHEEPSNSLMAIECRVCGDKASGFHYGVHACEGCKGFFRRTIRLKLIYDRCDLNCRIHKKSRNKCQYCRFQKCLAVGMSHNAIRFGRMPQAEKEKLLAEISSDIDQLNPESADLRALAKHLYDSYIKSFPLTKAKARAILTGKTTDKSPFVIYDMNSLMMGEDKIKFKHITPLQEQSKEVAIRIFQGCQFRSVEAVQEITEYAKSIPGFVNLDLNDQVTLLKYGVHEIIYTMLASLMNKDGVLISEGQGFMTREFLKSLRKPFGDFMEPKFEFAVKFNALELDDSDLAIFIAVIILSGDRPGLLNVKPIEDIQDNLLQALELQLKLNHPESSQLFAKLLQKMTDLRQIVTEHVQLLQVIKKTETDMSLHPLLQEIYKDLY
Experimental: as §2
HT-29 STD cells were transiently transfected using the Effectene™ transfection reagent (Qiagen™) according to instructions from the manufacturer. To test PPARγ activation, we performed transfection with 500 ng of a minimal promoter construct containing two copies of PPRE obtained from the cytochrome p450 4A (2×CYP). The renilla luciferase plasmid (0.1 μg/well) was also transfected as an internal control for monitoring transfection efficiency and for normalizing the firefly luciferase activity. Transfected cells were left for 48 hours incubation at 37° C. […] The pH of the drug solutions was adjusted to 7.4 with NaOH. Total cell extracts were prepared using the Passive Lysis Buffer (Promega™, Madison, Wis.). Luciferase activity was assayed in 20 μl of the extract using the Promega™ Dual Luciferase assay system according to the manufacturer's protocol. Transfections were assayed in triplicate in at least three separate experiments. The luciferase activity was expressed as fold of the activity obtained in cells treated with the different molecules divided by luciferase activity from non-stimulated cells.
We investigated PPARγ transcriptional activity by transient transfections of epithelial cells with the renilla luciferase PPRE plasmids. Cells were stimulated with the different molecules during 24 hours.

[4] = Solubility of the molecules in the cell experiments; assay type: physicochemical; conditions: reason for exclusion from the cell experiments
[5] = test system: HT-29 STD cells; experiment: Detection of apoptosis, TUNEL assay; assay type: cell-based; conditions: 30 mM, 24 h
Experimental: as §1

SMILES | cytotoxic effect on epithelial cells [1] | induction of PPARγ expression at the protein levels (in words) [2] | mean induction of PPARγ protein levels quantified by western blot [2] | other results
COc1ccc(N)cc1C(=O)NO [A] | rapid cytotoxic effects; also recorded: direct cytotoxic effects | – | – | –
COc1cc(N)ccc1C(=O)NO [B] | rapid cytotoxic effects; also recorded: direct cytotoxic effects | – | – | –
Nc1cc2c(c(C(=O)O)c1)OCC2 [C] | – | induce PPARγ expression | 2 fold | PPARγ activation (in words) [3]: induce PPARγ activation; increase of the reporter gene activity [3]: two-fold
CCOc1ccc(N)cc1C(=O)NO [Compound D] | rapid cytotoxic effect; also recorded: direct cytotoxic effects | induce PPARγ expression | 2 fold | –
CC1(C)OC(=O)c2cc(N)ccc2O1 [E] | – | – | – | solubility [4]: poor solubility
CC(C)Oc1ccc(N)cc1C(=O)O [F] | – | induce PPARγ expression | 2 fold | apoptosis, share of epithelial cells (TUNEL) [5]: 80%; PPARγ activation (in words) [3]: induce PPARγ activation; increase of the reporter gene activity [3]: two-fold
CC(C)N(c1ccc(O)c(C(=O)O)c1)C(C)C [G] | rapid cytotoxic effect; also recorded: direct cytotoxic effects | – | – | solubility [4]: poor solubility
